Tests used:
[1] = system: mandible and tibia of micropigs; conditions: hydrophilized implants coated with alendronate vs uncoated implants, 0 to 6 weeks, FIGS. 3 and 4
Method: (§1) In order to impart hydrophilicity to the implants which were subjected to the above processes, the titanium surface was hydrophilized by plasma treatment (RFGD, O2, etc.) for 1 minutes and light radiation (ultraviolet rays, ultraviolet-ozone, etc.) for 5 minutes. Then, a 10 ml solution of 40 μg Alendronate, 40 μg Zolendronate, 1 μg BMP-2, and 40 μg Alendronate+1 μg BMP-2 was uniformly applied to the surface, and the prepared implants, in which the solution was not dried, were used in the following Examples 2, 3 and 4.

tibia of micropigs = conditions: implants coated with rhBMP-2 and alendronate vs implants coated only with rhBMP-2, after 16 days, FIG. 6
Method: as §1

implant-bone interface = test: Removal torque of coated implants just after coating and after 3-year storage; type: in vivo; set-up: Removal torque: unit not given here; conditions: for removal torque compared with other bisphosphonates and bare implant (in words): summary of Table 1, bisphosphonate-coated implants; for removal torque compared with other dental implants (in words): summary of Table 2, implants coated with both rhBMP-2 and bisphosphonate
Method: In order to confirm the long-time storage stabilities of implant, osseointegration at implant-bone interface were measured via removal torque.
Each dental implant was coated with various bisphosphonates as described example 1 and its removal torque was measured just after coating step and 3-year self-storage, respectively.
Similarly, osseointegration at implant-bone interface were measured via removal torque for dental implants wherein the osteoclast activity inhibitor coating film further comprises a bone growth factor (BMP-2) as shown in Table 2.

[2] = storage period 0 year, implants coated with 10 ml solution of 40 μg bisphosphonate
[3] = storage period 0 year, implants coated with 10 ml solution of 40 μg bisphosphonate and 1 μg rhBMP-2
[4] = storage period 3 year, implants coated with 10 ml solution of 40 μg bisphosphonate
[5] = storage period 3 year, implants coated with 10 ml solution of 40 μg bisphosphonate and 1 μg rhBMP-2

| Compound | decrease in ISQ values compared to the negative control group [1] | increase of removal torque compared to the negative control group (tibia of micropigs) | Removal torque (implant-bone interface; [2]) | Removal torque (implant-bone interface; [3]) | Removal torque (implant-bone interface; [4]) | Removal torque (implant-bone interface; [5]) | removal torque compared with other bisphosphonates and bare implant (in words) (implant-bone interface) | removal torque compared with other dental implants (in words) (implant-bone interface) |
| --- | --- | --- | --- | --- | --- | --- | --- | --- |
| NCCCC(O)(P(=O)(O)O)P(=O)(O)O [Alendronate] | little decrease in ISQ values or the degree of the decrease was very lower | about 23% | 100.2 ± 8.4 | 130.1 ± 9.7 | 99.4 ± 11.8 | 129.8 ± 13.1 | higher removal torque | higher removal torque value |
| CCCCCN(C)CCC(O)(P(=O)(O)O)P(=O)(O)O [Ibandronate] | – | – | 98.4 ± 12.1 | 128.8 ± 13.4 | 85.4 ± 12.5 | 110.8 ± 13.4 | – | – |
| NCCC(O)(P(=O)(O)O)P(=O)(O)O [Pamindronate] | – | – | 99.6 ± 7.9 | 127.5 ± 12.2 | 84.1 ± 11.4 | 109.7 ± 12.2 | – | – |
| O=P(O)(O)C(O)(Cc1cccnc1)P(=O)(O)O [Resendronate] | – | – | 103.5 ± 9.3 | 128.1 ± 11.6 | 83.2 ± 9.3 | – | – | – |
| O=P(O)(O)C(O)(Cn1ccnc1)P(=O)(O)O [Zolendronate] | – | – | 104.4 ± 11.1 | 134.4 ± 11.9 | 103.8 ± 8.9 | 132.5 ± 10.7 | higher removal torque | higher removal torque value |
